Common to all, as to format: cell-based
Assay [1] deals with T1, PTGER4 (EP4) (Homo sapiens, UniProt P35408).
T1 construct: host or cells: HEK 293 (PathHunter PTGER4 b-arrestin cell line)
The assay is described as follows: hEP4 b-arrestin assay (PathHunter HEK 293 PTGER4 b-arrestin cells). The conditions noted are these: antagonistic activity, beta-arrestin assay; read-out: hEP4 b-arr IC50. As for the experimental part:
(§1) The antagonistic activities of the compounds of formula (I) on the EP2 and EP4 receptors are determined in accordance with the following experimental method.
(§2) The assay is using the PathHunter™ HEK 293 PTGER2 and PTGER4 b-arrestin cell lines from DiscoverX. The system is based on the Enzyme Fragment Complementation Technology. Two complementing fragments of the b-galactosidase enzyme are expressed within stably transfected cells. The larger portion of b-gal, termed EA for Enzyme Acceptor, is fused to the C-terminus of b-arrestin 2. The smaller fragment, termed ProLink™ tag, is fused to PTGER2 (EP2) or PTRGER4 (EP4) at the C-terminus. Upon activation, b-arrestin is recruited which forces the interaction of ProLink and EA, allowing complementation of the two fragments of b-gal and the formation of a functional enzyme which is capable of hydrolysing the substrate and generating a chemiluminescent signal.
The HEK 293 PTGER4 b-arrestin cells (DiscoverX 93-030-4C1) are detached from culture dishes with a cell dissociation buffer (Invitrogen, 13151-014), and collected in growing medium (GM: DMEM+Glutamax-I (Invitrogen 32430)/10% FCS, 1% Penicilin/streptomycin). 5000 cells per well of a 384 well plate (white with white bottom Greiner 781080) are seeded in 20 ul per well of GM. Plate is incubated at 37° C., 5% C02 for 24 hours.
(§3) Stock solutions of test compounds are made at a concentration of 10 mM in DMSO, and serially diluted in DMSO to concentrations required for inhibition dose response curves (tested concentration range 10 μM-2 nM or 1 μM-0.2 nM).
PGE2 (Cayman 14010, stock solution: 100 uM in DMSO) is used as agonist at 20 nM final concentration, corresponding to EC80.
Five microliters of diluted compounds are transferred into the assay plate. Plate is pre-incubated 15 minutes at 37° C. Then five microliters of PGE2 (final conc. 20 nM) are transferred into the assay plate. Plate is incubated 120 minutes at 37° C.
(§4) PathHunter Glo Detection Kit components are thawed and mix according to manufacturer's instructions: 1 part Galacton Star Substrate with 5 parts Emerald II™ Solution, and 19 parts of PathHunter Cell Assay Buffer, respectively. Twelve μl of reagent are transferred to the assay plate and incubate for 1 hour at room temperature in the dark. Luminescence counts are read on a BMG Fluostar Optima reader according to manufacturer's instructions.
(§5) For each compound concentration calculate of the percentage of activity compared to DMSO control value as average±STDEV. (each concentration is measured in duplicate)
(§6) IC50 values and curves are generated with XLfit software (IDBS) using Dose-Response One Site model 203. When compounds were measured multiple times, mean values are given.

For assay [2], the target named is T2, EP4 receptor (Homo sapiens, UniProt P35408).
T2 construct: BT549 breast cancer cells, express high endogenous EP4 levels and very low EP2 levels; host or cells: BT549 breast cancer cells
Put plainly: hEP4 cAMP assay (BT549 breast cancer cells, HTRF cAMP, PGE2 stimulation). Particulars: antagonistic activity, PGE2 6 nM (EC80). As for the experimental part:
(§7) The antagonistic activities of the compounds of formula (I) on the EP2 and EP4 receptors are also determined in accordance with the following experimental method.
(§8) Human tumor cell lines expressing endogenously either EP4 or EP2 are used and cAMP accumulation in cells upon PGE2 stimulation is monitored. SF295 glioblastoma cells express high endogenous EP2 and no EP4, whereas BT549 breast cancer cells, express high endogenous EP4 levels and very low EP2 levels.
(§9) As a detection method for cAMP the HTRF (homogeneous time resolved fluorescence) Cisbio kit (HTRF cAMP dynamic 2 kit 20′000 tests Cisbio Cat. #62AM4PEC) was used, which is based on a competitive immunoassay using a Cryptate-labeled anti-cAMP antibody and d2-labeled cAMP. Native cAMP produced by cells or unlabeled cAMP (for the standard curve) compete with exogenously added d2-labeled cAMP (acceptor) for binding to monoclonal anti-cAMP-Eu3+ Cryptate (donor). A FRET signal (Fluorescence Resonance Energy Transfer) is obtained only if the labeled anti-cAMP antibody binds the d2 labelled cAMP, thus the specific signal (i.e. energy transfer) is inversely proportional to the concentration of cAMP in the standard or sample.
The BT549 cells (NCI/No. 0507282) are detached from culture dishes with a cell dissociation buffer (Invitrogen, 13151-014), and collected in growing medium (GM: RPMI1640 (Invitrogen 21875)/10% FCS, 1% Penicilin/streptomycin). Cells are counted washed and resuspended in assay buffer (AB; HBSS, 20 mM HEPES, 0.2% BSA; 2 mM IBMX). 4′000 cells in 5 μl of AB are seeded per well of a small volume 384 well plate (black with flat bottom, Greiner 784076).
Stock solutions of test compounds are made at a concentration of 10 mM in DMSO, and serially diluted in DMSO to concentrations required for inhibition dose response curves (tested concentration range 30 μM-0.4 nM; 30 μM-0.015 nM or 1 uM-0.01 nM).
PGE2 (Cayman 14010, stock solution: 6 μM in DMSO) is used as agonist at 6 nM final concentration, corresponding to EC80.
Two point five microliters of diluted compounds are transferred into the assay plate. Plate is pre-incubated 45 minutes at room temperature. Subsequently, 2.5 microliters of PGE2 (final conc. 6 nM) are transferred into the assay plate. Plate is incubated 30 minutes at room temperature. Five μl of each donor (anti-cAMP cryptate) and acceptor (cAMP-d2) are added and the plate is incubated another hour at room temperature in the dark and then read using a BMG LABTECH PHERAstar reader (Excitation:337 nm, Emission:620 and 665 nm).
The obtained Delta F(fluorescence) values (665 nm/620 nM) are converted into % cAMP values using the measurements of the cAMP calibrator provided in the kit. For each compound concentration the percentage of cAMP compared to DMSO control value as average±STDEV (each concentration is measured in duplicate) is calculated.
as §6
On the technique in general: Changes in cAMP serve as a functional read-out for many G protein-coupled receptors.

Assay [3] has as its target T3, PTGER2 (EP2) (Homo sapiens, UniProt P43116).
T3 construct: host or cells: HEK 293 (PathHunter PTGER2 b-arrestin cell line)
Put plainly: hEP2 b-arrestin assay (PathHunter HEK 293 PTGER2 b-arrestin cells). The conditions noted are these: antagonistic activity, beta-arrestin assay; read-out: hEP2 b-arr IC50. How it is done:
as §1, §2
The HEK 293 PTGER2 b-arrestin cells (DiscoverX 93-021-4C1) are detached from culture dishes with a cell dissociation buffer (Invitrogen, 13151-014), and collected in growing medium (GM: DMEM+Glutamax-I (Invitrogen 32430)/10% FCS, 1% Penicilin/streptomycin). 5000 cells per well of a 384 well plate (white with white bottom Greiner 781080) are seeded in 20 ul per well of GM. Plate is incubated at 37° C., 5% C02 for 24 hours.
as §3
PGE2 (Cayman 14010, stock solution: 10 mM in DMSO) is used as agonist at 5 μM final concentration, corresponding to EC80.
Five microliters of diluted compounds are transferred into the assay plate. Plate is pre-incubated 15 minutes at 37° C. Then five microliters of PGE2 (final conc. 5 μM) are transferred into the assay plate. Plate is incubated 120 minutes at 37° C.
as §4, §5, §6

The target in assay [4] is T4, EP2 receptor (Homo sapiens, UniProt P43116).
T4 construct: SF295 glioblastoma cells express high endogenous EP2 and no EP4; host or cells: SF295 glioblastoma cells
Put plainly: hEP2 cAMP assay (SF295 glioblastoma cells, HTRF cAMP, PGE2 stimulation). Particulars: antagonistic activity. As for the experimental part: as §7, §8, §9
The SF295 cells (NCI/No. 0503170) are detached from culture dishes with a cell dissociation buffer (Invitrogen, 13151-014), and collected in growing medium (GM: RPM1640 (Invitrogen 21875)/10% FCS, 1% Penicilin/streptomycin). Cells are counted washed and resuspended in assay buffer (AB; HBSS, 20 mM HEPES, 0.2% BSA; 2 mM IBMX). 4′000 cells in 5 μl of AB are seeded per well of a small volume 384 well plate (black with flat bottom, Greiner 784076).
Stock solutions of test compounds are made at a concentration of 10 mM in DMSO, and serially diluted in DMSO to concentrations required for inhibition dose response curves (tested concentration range 30 μM-0.4 nM; 30 μM-0.015 nM or 1 μM-0.01 nM).
PGE2 (Cayman 14010, stock solution: 75 μM in DMSO) is used as agonist at 75 nM final concentration, corresponding to EC80.
Two point five microliters of diluted compounds are transferred into the assay plate. Plate is pre-incubated 45 minutes at room temperature. Subsequently, 2.5 microliters of PGE2 (final conc. 75 nM) are transferred into the assay plate. Plate is incubated 30 minutes at room temperature. Five μl of each donor (anti-cAMP cryptate) and acceptor (cAMP-d2) are added and the plate is incubated another hour at room temperature in the dark and then read using a BMG LABTECH PHERAstar reader (Excitation: 337 nm, Emission: 620 and 665 nm).
The obtained Delta F (fluorescence) values (665 nm/620 nM) are converted into % cAMP values using the measurements of the cAMP calibrator provided in the kit. For each compound concentration the percentage of cAMP compared to DMSO control value as average±STDEV (each concentration is measured in duplicate) is calculated.
as §6

T4 sequence (P43116 whole entry): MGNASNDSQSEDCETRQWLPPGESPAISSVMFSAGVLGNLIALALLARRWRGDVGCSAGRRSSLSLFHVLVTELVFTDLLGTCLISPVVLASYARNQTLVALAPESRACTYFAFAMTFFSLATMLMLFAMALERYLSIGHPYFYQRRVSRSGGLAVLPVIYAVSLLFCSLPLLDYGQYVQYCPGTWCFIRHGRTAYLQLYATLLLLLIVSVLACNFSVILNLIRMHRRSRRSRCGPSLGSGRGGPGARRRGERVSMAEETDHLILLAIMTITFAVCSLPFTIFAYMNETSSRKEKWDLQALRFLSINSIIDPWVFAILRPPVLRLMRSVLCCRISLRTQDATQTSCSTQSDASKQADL
T3 sequence (P43116 whole entry): as above
T1 sequence (P35408 whole entry): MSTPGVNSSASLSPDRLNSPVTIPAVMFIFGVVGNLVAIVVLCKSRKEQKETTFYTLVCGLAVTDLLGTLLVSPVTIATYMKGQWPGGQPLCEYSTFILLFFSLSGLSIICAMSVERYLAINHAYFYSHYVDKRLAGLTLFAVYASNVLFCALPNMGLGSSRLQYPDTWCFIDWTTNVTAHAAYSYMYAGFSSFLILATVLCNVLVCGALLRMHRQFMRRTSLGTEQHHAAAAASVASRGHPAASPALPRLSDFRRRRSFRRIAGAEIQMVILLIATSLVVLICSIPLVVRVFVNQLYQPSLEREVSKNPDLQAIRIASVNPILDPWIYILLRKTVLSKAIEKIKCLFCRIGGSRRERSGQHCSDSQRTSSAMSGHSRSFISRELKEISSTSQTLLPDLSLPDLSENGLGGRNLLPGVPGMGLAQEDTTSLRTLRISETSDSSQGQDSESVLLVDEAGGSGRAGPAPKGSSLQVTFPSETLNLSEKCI
T2 sequence (P35408 whole entry): as above

As to `COc1cc(Cl)cc2c(CCNc3cc(-c4cc(C)c(C(=O)O)s4)ncn3)c(C)oc12` [Example 1, 5-{6-[2-(5-Chloro-7-methoxy-2-methyl-benzofuran-3-yl)-ethylamino]-pyrimidin-4-yl}-3-methyl-thiophene-2-carboxylic acid], the half-maximal inhibitory concentration (IC50) in assay [1] was determined as 142 nM; in assay [2], 22 nM; in assay [3], 59 nM.
Turning to `Cc1sc2c(Cl)ccc(Cl)c2c1CCNc1cc(-c2ccc(C(=O)O)c(O)c2)ncn1` [Example 11, 4-{6-[2-(4,7-Dichloro-2-methyl-benzo[b]thiophen-3-yl)-ethylamino]-pyrimidin-4-yl}-2-hydroxy-benzoic acid], the results for the IC50 in assay [1], in assay [3] and in assay [4] were 3090 nM, 99 nM and 71 nM, respectively.
Consider `CCOc1cc(-c2cc(NCCc3c(C#N)sc4c(C)cc(F)cc34)ncn2)sc1C(=O)O` [Example 26, 5-{6-[2-(2-Cyano-5-fluoro-7-methyl-benzo[b]thiophen-3-yl)-ethylamino]-pyrimidin-4-yl}-3-ethoxy-thiophene-2-carboxylic acid], for which the figures for the half-inhibitory concentration (IC50) in assay [2] and in assay [4] were 2 nM and 1 nM, respectively.
For `Cc1sc2c(C)cc(F)cc2c1CCNc1cc(-c2cc(OCCO)c(C(=O)O)s2)ncn1` [Example 41, 5-{6-[2-(5-Fluoro-2,7-dimethyl-benzo[b]thiophen-3-yl)-ethylamino]-pyrimidin-4-yl}-3-(2-hydroxy-ethoxy)-thiophene-2-carboxylic acid] the same measures were 42 nM and 13 nM.
As to `CSc1cc(-c2cc(NCCc3c(C)sc4ccccc34)ncn2)cc(F)c1C(=O)O` [Example 48, 2-Fluoro-4-{6-[2-(2-methyl-benzo[b]thiophen-3-yl)-ethylamino]-pyrimidin-4-yl}-6-methylsulfanyl-benzoic acid], the IC50 amounted to 3380 nM in assay [1], 5 nM in assay [3] and 2 nM in assay [4].
For `CSc1cc(-c2cc(NCCc3c(C)oc4ccccc34)ncn2)cc(F)c1C(=O)O` [Example 49, 2-Fluoro-4-{6-[2-(2-methyl-benzofuran-3-yl)-ethylamino]-pyrimidin-4-yl}-6-methylsulfanyl-benzoic acid] the same measures were 3620 nM, 2 nM and 1 nM.
As for `CSc1cc(-c2cc(NCCc3c(C)oc4ccccc34)ncn2)cc(Cl)c1C(=O)O` [Example 51, 2-Chloro-4-{6-[2-(2-methyl-benzofuran-3-yl)-ethylamino]-pyrimidin-4-yl}-6-methylsulfanyl-benzoic acid], the IC50 in assay [1] was 3490 nM; in assay [3], 10 nM; in assay [4], 1 nM.
`CCOc1cc(-c2cc(NCCc3c(C)oc4ccccc34)ncn2)ccc1C(=O)O` [Example 73, 2-Ethoxy-4-{6-[2-(2-methyl-benzofuran-3-yl)-ethylamino]-pyrimidin-4-yl}-benzoic acid]: the IC50 was 3500 nM in assay [1], 5 nM in assay [3] and 4 nM in assay [4].
In the case of `COc1cc(-c2cc(NCCc3c(C)sc4c(C)ccc(F)c34)ncn2)cc(C)c1C(=O)O` [Example 74, 4-{6-[2-(4-Fluoro-2,7-dimethyl-benzo[b]thiophen-3-yl)-ethylamino]-pyrimidin-4-yl}-2-methoxy-6-methyl-benzoic acid], the IC50 in assay [2] amounted to 644 nM; in assay [4] it was 273 nM.
For the compound `Cc1sc2c(C)cccc2c1CCNc1cc(-c2ccc3oc(C(=O)O)cc3c2)ncn1` [Example 78, 5-{6-[2-(2,7-Dimethyl-benzo[b]thiophen-3-yl)-ethylamino]-pyrimidin-4-yl}-benzofuran-2-carboxylic acid], the IC50 in assay [2] came to 87 nM; in assay [4], 7 nM.
In the case of `CCOc1cc(-c2cc(NCCc3csc4ccccc34)ncn2)ccc1OCC(=O)O` [Example 125, {4-[6-(2-Benzo[b]thiophen-3-yl-ethylamino)-pyrimidin-4-yl]-2-ethoxy-phenoxy}-acetic acid], the half-inhibitory concentration (IC50) in assay [2] was determined as 426 nM; in assay [4] it was 359 nM.

One may read the IC50 as the midpoint of a concentration-inhibition curve.

The record behind these values is patent US11325899B2, “Benzofurane and benzothiophene derivatives as PGE2 receptor modulators” (IDORSIA PHARMACEUTICALS LTD, priority 2017, dated 2022).
